Source: US9434711B2 (Janssen Pharmaceutica, NV, priority 2007, dated 2016)

Biological target: canine TRPM8 (Canis lupus familiaris, UniProt Q1A7N1)
Assay: In Vitro Canine TRPM8 Functional Assay (Ca2+ fluorescence, icilin activation)
Type: cell-based
Conditions: for IC50: HEK293 cells stably expressing canine TRPM8, icilin activation, eight-point dose-response, read-out: IC50; for inhibition at 0.2 µM / % Inh @ 0.2 (μM): compound at 0.2 μM, canine TRPM8, icilin activation; for inhibition at 0.2 µM: read-out: % Inh @ 0.2
Procedure, shortened: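 HEK293 cells stably expressing canine TRPM8 were loaded with Calcium 3 dye (35 min at 37 °C, then 25 min at room temperature). Compound was added and Ca2+ fluorescence was read for 5 min before icilin at a concentration giving about 80% maximal response. EC50/IC50 came from eight-point dose-response curves, quadruplicate wells.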

canine TRPM8, sequence (Q1A7N1 1-1104): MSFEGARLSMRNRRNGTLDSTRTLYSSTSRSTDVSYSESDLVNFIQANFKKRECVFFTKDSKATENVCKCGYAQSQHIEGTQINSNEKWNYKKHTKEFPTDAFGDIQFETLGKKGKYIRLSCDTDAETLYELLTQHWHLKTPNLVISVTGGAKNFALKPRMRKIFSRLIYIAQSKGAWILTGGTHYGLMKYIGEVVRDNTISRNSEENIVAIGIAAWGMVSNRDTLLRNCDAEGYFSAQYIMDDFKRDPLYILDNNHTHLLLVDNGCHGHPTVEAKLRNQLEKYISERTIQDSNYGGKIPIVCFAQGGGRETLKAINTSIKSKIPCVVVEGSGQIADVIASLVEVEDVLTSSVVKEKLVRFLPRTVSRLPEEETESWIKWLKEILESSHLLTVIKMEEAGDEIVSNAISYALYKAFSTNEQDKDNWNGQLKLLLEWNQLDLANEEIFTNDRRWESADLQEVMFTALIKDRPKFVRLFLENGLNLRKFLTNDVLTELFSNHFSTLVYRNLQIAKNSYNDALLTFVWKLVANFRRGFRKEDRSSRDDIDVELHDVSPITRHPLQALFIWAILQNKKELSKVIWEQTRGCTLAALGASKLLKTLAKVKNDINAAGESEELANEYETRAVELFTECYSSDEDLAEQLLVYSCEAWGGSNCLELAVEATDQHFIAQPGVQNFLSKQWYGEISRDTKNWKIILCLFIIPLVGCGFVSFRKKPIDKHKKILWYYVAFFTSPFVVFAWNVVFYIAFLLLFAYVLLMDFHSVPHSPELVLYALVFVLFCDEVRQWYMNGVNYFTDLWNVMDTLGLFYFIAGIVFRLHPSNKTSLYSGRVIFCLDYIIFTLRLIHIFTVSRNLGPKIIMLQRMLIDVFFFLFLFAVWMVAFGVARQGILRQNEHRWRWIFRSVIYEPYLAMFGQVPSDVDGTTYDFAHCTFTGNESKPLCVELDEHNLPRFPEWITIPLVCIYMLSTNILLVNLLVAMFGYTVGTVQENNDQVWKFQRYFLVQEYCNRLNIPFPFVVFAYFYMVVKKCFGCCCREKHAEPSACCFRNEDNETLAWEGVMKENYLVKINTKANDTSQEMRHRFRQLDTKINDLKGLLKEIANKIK

| Compound | IC50 [nM] | inhibition at 0.2 µM [%] | % Inh @ 0.2 (μM) [%] |
| --- | --- | --- | --- |
| Nc1ccc(S(=O)(=O)N(CCC(F)(F)F)c2sc3ccccc3c2Br)cc1 [Compound 587, 4-Amino-N-(3-bromo-benzo[b]thiophen-2-yl)-N-(3,3,3-trifluoro-propyl)-benzenesulfonamide] | 3.9 | 100 | – |
| Nc1ccc(S(=O)(=O)N(CCC(F)(F)F)c2sc3ccccc3c2Br)cc1Br [Compound 588, 4-Amino-3-bromo-N-(3-bromo-benzo[b]thiophen-2-yl)-N-(3,3,3-trifluoro-propyl)-benzenesulfonamide] | 12.1 | 101 | – |
| Cc1c(N(CCC2CC2)S(=O)(=O)c2ccc(C(=O)O)cc2F)sc2ccccc12 [Compound 589, N-(3-Methyl-benzo[b]thiophen-2-yl)-N-(2-cyclopropyl-ethyl)-2-fluoro-4-carboxy-benzenesulfonamide] | 4.2 | 100 | – |
| Cc1c(N(CCC(F)(F)F)S(=O)(=O)c2ccc(C(=O)O)cc2F)sc2ccccc12 [Compound 590, N-(3-Methyl-benzo[b]thiophen-2-yl)-N-(3,3,3-trifluoro-propyl)-2-fluoro-4-carboxy-benzenesulfonamide] | 6.1 | 101 | – |
| Cc1c(N(CCCCC(F)(F)F)S(=O)(=O)c2ccc(C(=O)O)cc2F)sc2ccccc12 [Compound 591, N-(3-Methyl-benzo[b]thiophen-2-yl)-N-(5,5,5-trifluoro-pentyl)-2-fluoro-4-carboxy-benzenesulfonamide] | 4.2 | 101 | – |
| Cc1c(N(Cc2ccc(F)c(C(F)(F)F)c2)S(=O)(=O)c2ccc(C(=O)O)cc2F)sc2ccccc12 [Compound 592, N-(3-Methyl-benzo[b]thiophen-2-yl)-N-(4-fluoro-3-trifluoromethyl-benzyl)-2-fluoro-4-carboxy-benzenesulfonamide] | 1.8 | 101 | – |
| CCCCN(c1sc2ccccc2c1C)S(=O)(=O)c1ccc(C(=O)O)cc1F [Compound 593, N-(3-Methyl-benzo[b]thiophen-2-yl)-N-(butyl)-2-fluoro-4-carboxy-benzenesulfonamide] | 7.6 | 101 | – |
| O=S(=O)(c1ccc(-c2nnn[nH]2)cc1)N(CCC1CC1)c1sc2ccccc2c1Br [Compound 594, N-(3-Bromo-benzo[b]thiophen-2-yl)-N-(2-cyclopropyl-ethyl)-4-(1H-tetrazol-5-yl)-benzenesulfonamide] | – | 101 | – |
| O=S(=O)(c1ccc(-c2nnn[nH]2)cc1)N(CCC(F)(F)F)c1sc2ccccc2c1Br [Compound 595, N-(3-Bromo-benzo[b]thiophen-2-yl)-N-(3,3,3-trifluoro-propyl)-4-(1H-tetrazol-5-yl)-benzenesulfonamide] | – | 101 | – |
| O=S1NC(c2ccc(S(=O)(=O)N(CCC(F)(F)F)c3cc4ccccc4s3)cc2)=NO1 (centres unmarked) [Compound 596, N-(Benzo[b]thiophen-2-yl)-N-(3,3,3-trifluoro-propyl)-4-(3H-[1,2,3,5]oxathiadiazole-2-oxide)-benzenesulfonamide] | – | – | 17 |
| Cc1c(N(CCC(F)(F)F)S(=O)(=O)c2ccc(C3=NOS(=O)N3)cc2)sc2ccccc12 (centres unmarked) [Compound 598, N-(3-Methyl-benzo[b]thiophen-2-yl)-N-(3,3,3-trifluoro-propyl)-4-(3H-[1,2,3,5]oxathiadiazole-2-oxide)-benzenesulfonamide] | 30.7 | – | 101 |
| Cc1c(N(CCC(F)(F)F)S(=O)(=O)c2ccc(-c3noc(=O)[nH]3)cc2)sc2ccccc12 [Compound 599, N-(3-Methyl-benzo[b]thiophen-2-yl)-N-(3,3,3-trifluoro-propyl)-4-(5-oxo-4,5-dihydro-[1,2,4]oxadiazol-3-yl)-benzenesulfonamide] | 16.1 | 101 | – |
| COC(=O)CCS(=O)(=O)N(CCC1CC1)c1sc2ccccc2c1C [Compound 600, N-(2-Cyclopropyl-ethyl)-N-(3-methyl-benzo[b]thiophen-2-yl)-2-carbomethoxy-ethanesulfonamide] | 8.9 | 101 | – |
| COC(=O)CCS(=O)(=O)N(CCC(F)(F)F)c1sc2ccccc2c1C [Compound 601, N-(3-Methyl-benzo[b]thiophen-2-yl)-N-(3,3,3-trifluoro-propyl)-2-carbomethoxy-ethanesulfonamide] | – | 100 | – |
| COC(=O)CCS(=O)(=O)N(CCCC(F)(F)F)c1sc2ccccc2c1C [Compound 602, N-(3-Methyl-benzo[b]thiophen-2-yl)-N-(4,4,4-trifluoro-butyl)-2-carbomethoxy-ethanesulfonamide] | 22.1 | 101 | – |
| COC(=O)CCS(=O)(=O)N(CCCCC(F)(F)F)c1sc2ccccc2c1C [Compound 603, N-(3-Methyl-benzo[b]thiophen-2-yl)-N-(5,5,5-trifluoro-pentyl)-2-carbomethoxy-ethanesulfonamide] | 10.3 | 101 | – |
| O=S1NC(c2ccc(S(=O)(=O)N(CCC(F)(F)F)c3sc4ccccc4c3Br)cc2)=NO1 (centres unmarked) [Compound 607, N-(3-Bromo-benzo[b]thiophen-2-yl)-N-(3,3,3-trifluoro-propyl)-4-(3H-[1,2,3,5]oxathiadiazole-2-oxide)-benzenesulfonamide] | 36.8 | – | 101 |
| O=S1NC(c2ccc(S(=O)(=O)N(CCC3CC3)c3cc4ccccc4s3)cc2)=NO1 (centres unmarked) [Compound 610, N-(Benzo[b]thiophen-2-yl)-N-(cyclopropyl-ethyl)-4-(3H-[1,2,3,5]oxathiadiazole-2-oxide)-benzenesulfonamide] | – | – | 55 |
| Cc1c(N(CCC2CC2)S(=O)(=O)c2ccc(C3=NOS(=O)N3)cc2)sc2ccccc12 (centres unmarked) [Compound 611, N-(3-Methyl-benzo[b]thiophen-2-yl)-N-(cyclopropyl-ethyl)-4-(3H-[1,2,3,5]oxathiadiazole-2-oxide)-benzenesulfonamide] | 14.6 | – | 101 |

Second part, led by results:

| IC50 [nM] | inhibition at 0.2 µM [%] | Compound | % Inh @ 0.2 (μM) [%] |
| --- | --- | --- | --- |
| – | 13 | Cc1c(N(CCC(F)(F)F)S(=O)(=O)CCC(=O)O)sc2ccccc12 [Compound 604, N-(3-Methyl-benzo[b]thiophen-2-yl)-N-(3,3,3-trifluoro-propyl)-2-carboxy-ethanesulfonamide] | – |
| – | 18 | Cc1c(N(CCCC(F)(F)F)S(=O)(=O)CCC(=O)O)sc2ccccc12 [Compound 605, N-(3-Methyl-benzo[b]thiophen-2-yl)-N-(4,4,4-trifluoro-butyl)-2-carboxy-ethanesulfonamide] | – |
| 90.5 | 75 | Cc1c(N(CCCCC(F)(F)F)S(=O)(=O)CCC(=O)O)sc2ccccc12 [Compound 606, N-(3-Methyl-benzo[b]thiophen-2-yl)-N-(5,5,5-trifluoro-pentyl)-2-carboxy-ethanesulfonamide] | – |
| – | 101 | O=c1[nH]c(-c2ccc(S(=O)(=O)N(CCC(F)(F)F)c3sc4ccccc4c3Br)cc2)no1 [Compound 608, N-(3-Bromo-benzo[b]thiophen-2-yl)-N-(3,3,3-trifluoro-propyl)-4-(5-oxo-4,5-dihydro-[1,2,4]oxadiazol-3-yl)-benzenesulfonamide] | – |
| 53.7 | 99 | O=c1[nH]c(-c2ccc(S(=O)(=O)N(CCC(F)(F)F)c3sc4ccccc4c3Cl)cc2)no1 [Compound 609, N-(3-Chloro-benzo[b]thiophen-2-yl)-N-(3,3,3-trifluoro-propyl)-4-(5-oxo-4,5-dihydro-[1,2,4]oxadiazol-3-yl)-benzenesulfonamide] | – |
| 53.7 | 97 | O=c1[nH]c(-c2ccc(S(=O)(=O)N(CCC3CC3)c3cc4ccccc4s3)cc2)no1 [Compound 612, N-(Benzo[b]thiophen-2-yl)-N-(cyclopropyl-ethyl)-4-(5-oxo-4,5-dihydro-[1,2,4]oxadiazol-3-yl)-benzenesulfonamide] | – |
| 6.6 | 101 | Cc1c(N(CCC2CC2)S(=O)(=O)c2ccc(-c3noc(=O)[nH]3)cc2)sc2ccccc12 [Compound 613, N-(3-Methyl-benzo[b]thiophen-2-yl)-N-(cyclopropyl-ethyl)-4-(5-oxo-4,5-dihydro-[1,2,4]oxadiazol-3-yl)-benzenesulfonamide] | – |
| 7.4 | 101 | Cc1c(N(CCC2CC2)S(=O)(=O)c2ccccc2)sc2ccccc12 [Compound 614, N-(2-Cyclopropyl-ethyl)-N-(3-methyl-benzo[b]thiophen-2-yl)-benzenesulfonamide] | – |
| 7.3 | 101 | Cc1c(N(CCC(F)(F)F)S(=O)(=O)c2ccccc2)sc2ccccc12 [Compound 615, N-(3-Methyl-benzo[b]thiophen-2-yl)-N-(3,3,3-trifluoro-propyl)-benzenesulfonamide] | – |
| 12.8 | 101 | Cc1c(N(CCCC(F)(F)F)S(=O)(=O)c2ccccc2)sc2ccccc12 [Compound 616, N-(3-Methyl-benzo[b]thiophen-2-yl)-N-(4,4,4-trifluoro-butyl)-benzenesulfonamide] | – |
| 7.4 | 101 | Cc1c(N(CCCCC(F)(F)F)S(=O)(=O)c2ccccc2)sc2ccccc12 [Compound 617, N-(3-Methyl-benzo[b]thiophen-2-yl)-N-(5,5,5-trifluoro-pentyl)-benzenesulfonamide] | – |
| 10.4 | 101 | CC1=C(N(CCC2CC2)S(=O)(=O)c2ccccc2)S(=O)(=O)c2ccccc21 [Compound 618, N-(2-Cyclopropyl-ethyl)-N-(3-methyl-1,1-dioxo-benzo[b]thiophen-2-yl)-benzenesulfonamide] | – |
| 39.8 | 101 | CC1=C(N(CCC(F)(F)F)S(=O)(=O)c2ccccc2)S(=O)(=O)c2ccccc21 [Compound 619, N-(3-Methyl-1,1-dioxo-benzo[b]thiophen-2-yl)-N-(3,3,3-trifluoro-propyl)-benzenesulfonamide] | – |
